Laboratory results as given in patent US4314028A, “Fermentation process for producing tallysomycin compounds” (priority 1980, dated 1982).
Where two headings read alike, the source gives them in different places.

How the values were obtained:
[1] = Subacute toxicity, multiple dose LD50; assay type: in vivo, dd mice; conditions: ip, once daily 9 days, 30 days observation; copper-chelated form unless otherwise stated
Experimental: (§1) Graded doses of test compounds were administered intraperitoneally to groups of dd mice. The injection was given one time only or once daily for 9 consecutive days. Death or survival of the animals was recorded for 30 days after the last dose of test compound to calculate the single or multiple median lethal dose (LD50).

[2] = test system: Sarcoma 180; assay: animal or person; assay type: in vivo, dd-strain mice; conditions: for Antitumor activity S180 (ED150) / ED (T/C 150%): ip; for ED (T/C 150%): Mus musculus, 216 h, read-out: Antitumor activity S180 (ED150)
How it was run: (§2)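 P388 (3×10^5 cells) and Lewis lung (5×10^5) i.p. in BDF1 mice, B16 (5×10^5) s.c. in BDF1, Sarcoma 180 ([…]) i.p. in male dd mice. ED125 (Sarcoma 180 ED150) from median-survival T/C, 45 days; B16 ID50 from day-16 tumor size.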

[3] = Acute toxicity, single dose LD50; assay type: in vivo, dd mice; conditions: ip, 30 days observation, copper-chelated form unless otherwise stated
Experimental: as §1

[4] = test system: lysogenic bacterium E. coli W1709 (λ); assay: Prophage induction of lysogenic bacterium (ILB activity); assay type: cell-based; conditions: t/c ratio of plaque counts greater than 3.0
How it was run: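 Plaques counted on agar plates containing test compound and on control plates, following Lein et al. A test/control plaque ratio above 3.0 counted as significant. Value given as the minimum inducible concentration.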

[5] = test system: Melanotic melanoma B16; assay: Antitumor activity in mice, melanotic melanoma B16; assay type: in vivo, BDF1 mice; conditions: copper-chelated form unless otherwise stated; for Antitumor activity B16 (ID50): ip, once daily 9 days, 50% inhibition of tumor growth, day 16, 23040 min
How it was run: as §2

[6] = test system: Mycobacterium smegmatis strain M6-3; assay: Relative antibacterial potency, paper-disc agar diffusion method; assay type: cell-based; conditions: relative to tallysomycin A standard=1000 mcg/mg
Experimental: The relative antibacterial potencies (tallysomycin A standard=1000 mcg/mg) of the tallysomycin derivatives were determined by the paper-disc agar diffusion method using Mycobacterium smegmatis strain M6-3 as the assay organism.

[7] = test system: Lymphocytic leukemia P388; assay: animal or person; assay type: in vivo, BDF1 mice; conditions: for Antitumor activity P388 (ED125): ip, once daily 9 days, dose giving T/C survival of 125%
How it was run: as §2

[8] = test system: Lewis lung carcinoma; assay: Antitumor activity in mice, Lewis lung carcinoma; assay type: in vivo, BDF1 mice; conditions: for Antitumor activity Lewis lung (ED125): once daily 11 days, dose giving T/C survival of 125%
Text: The antitumor activity of the tallysomycin derivatives was examined in four experimental tumor systems in mice. Lymphocytic leukemia P388 and Lewis lung carcinoma were implanted intraperitoneally into BDF1 mice of either sex at an inoculum size of 3×10^5 and 5×10^5 cells per mouse, respectively. Sarcoma 180 ascites tumor was inoculated intraperitoneally into male dd-strain mice with […] per mouse. Melanotic melanoma B16 was implanted subcutaneously into BDF1 mice with 5×10^5 cells per mouse. Twenty-four hours after the implantation of tumor cells, graded doses of test compounds were administered to mice intraperitoneally in an injection volume of 0.2 ml. per 10 grams of body weight. Test compounds were given once daily for 9 days (qd 1→9 schedule) except for the mice inoculated with Lewis lung carcinoma which were treated for 11 days (qd 1→11). Death or survival of the treated and non-treated (control) animals was recorded daily during the observation period of 45 days after the implantation of tumor cells, and the median survival time was calculated for each of the test (T) and control (C) groups. […] The actual dose giving a T/C of 125% was estimated by linear regression analysis and defined as the effective dose 125 or ED125. The effective dose 150 (ED150) was employed for the evaluation of antitumor effect against Sarcoma 180. In the B16 melanoma experiment the tumor size was measured on day 16 after tumor inoculation, and the dose giving 50% inhibition of tumor growth (ID50) was calculated from regression lines.
The antitumor therapeutic index was calculated for each derivative from the ratio of toxicity and antitumor activity.

[9] = test system: Escherichia coli NIHJ; assay: MIC, two-fold agar dilution method; assay type: cell-based; conditions: nutrient agar
How it was run: (§3)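 Agar dilution (2-fold series) on nutrient agar (bacteria) or Sabouraud agar (fungi).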

[10] = test system: Candida albicans IAM 4888; assay: MIC, two-fold agar dilution method; assay type: cell-based; conditions: Sabouraud agar
How it was run: as §3

[11] = test system: Aspergillus fumigatus IAM 2593; assay: MIC, two-fold agar dilution method; assay type: cell-based; conditions: Sabouraud agar
How it was run: (§4)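 For each organism, growth was scored on agar plates carrying doubling concentrations of compound. Bacteria, both gram-positive and acid-fast, grew on nutrient agar, and A. fumigatus grew on Sabouraud agar.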

[12] = test system: Staphylococcus aureus Smith; assay: MIC, two-fold agar dilution method; assay type: cell-based; conditions: nutrient agar
How it was run: as §4

[13] = test system: Sarcina lutea PCI1001; assay: MIC, two-fold agar dilution method; assay type: cell-based; conditions: nutrient agar
How it was run: as §4

[14] = test system: Bacillus subtilis PCI 219; assay: MIC, two-fold agar dilution method; assay type: cell-based; conditions: nutrient agar
How it was run: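 Compounds are diluted two-fold through agar plates: Sabouraud medium for the fungus, nutrient medium for the bacterial strains, including the acid-fast Mycobacterium 607. Organisms are then applied and the minimum inhibitory concentration is recorded.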

[15] = test system: Mycobacterium 607; assay: MIC, two-fold agar dilution method; assay type: cell-based; conditions: nutrient agar
How it was run: as §4

[16] = test system: Proteus mirabilis A9554; assay: MIC, two-fold agar dilution method; assay type: cell-based; conditions: nutrient agar
How it was run: as §3

[17] = once daily 9 days, effective dose 150, survival, copper-chelated form unless otherwise stated
[18] = copper-chelated form unless otherwise stated
[19] = single dose LD50/ED125, copper-chelated form unless otherwise stated
[20] = ip, copper-chelated form unless otherwise stated

## Cc1c(N)nc(C(CC(N)=O)NCC(N)C(N)=O)nc1C(=O)NC(C(=O)NC(C)C(O)CC(=O)NC(C(=O)NC(OC1OC(C)C(N)C(O)C1O)C(O)c1nc(-c2nc(C(=O)NCCC[S+](C)C)cs2)cs1)C(C)O)C(OC1OC(CO)C(O)C(O)C1OC1OC(CO)C(O)C(OC(N)=O)C1O)c1cnc[nH]1.Cl.Cl.Cl.[Cl-] (centres unmarked) [Tallysomycin S2b]
[1]
  LD50 multiple dose (qd 1 → 9): 2.0 mg/kg/day
[2]; [17]
  Antitumor activity S180 (ED150): 0.12 mg/kg/day
[2]; single dose LD50/ED150, copper-chelated form unless otherwise stated
  Antitumor therapeutic index S180: 267
[3]
  LD50 single dose: 32 mg/kg/day
[4]
  ILB activity (minimum inducible concentration): 0.63 µg/mL
[5]
  Antitumor activity B16 (ID50): 0.33 mg/kg/day
[5]; single dose LD50/ID50
  Antitumor therapeutic index B16: 97
[6]
  Antibacterial potency: 300 μ/mg
[7]; [18]
  Antitumor activity P388 (ED125): 0.91 mg/kg/day
[7]; [19]
  Antitumor therapeutic index P388: 35
[8]; [20]
  Antitumor activity Lewis lung (ED125): 0.65 mg/kg/day
[8]; [19]
  Antitumor therapeutic index Lewis Lung: 49
[9]
  minimum inhibitory concentration (MIC): 0.4
[10]
  minimum inhibitory concentration (MIC): 25
[11]
  minimum inhibitory concentration (MIC): 0.8
[12]
  minimum inhibitory concentration (MIC): 1.6
[13]
  minimum inhibitory concentration (MIC): 6.3
[14]
  minimum inhibitory concentration (MIC): < 0.05
[15]
  minimum inhibitory concentration (MIC): 0.2
[16]
  minimum inhibitory concentration (MIC): 1.6

## Cc1c(N)nc(C(CC(N)=O)NCC(N)C(N)=O)nc1C(=O)NC(C(=O)NC(C)C(O)CC(=O)NC(C(=O)NC(OC1OC(C)C(N)C(O)C1O)C(O)c1nc(-c2nc(C(=O)NCCCC(N)CC(=O)NCCCNCCCCN)cs2)cs1)C(C)O)C(OC1OC(CO)C(O)C(O)C1OC1OC(CO)C(O)C(OC(N)=O)C1O)c1c[nH]cn1 (centres unmarked) [Tallysomycin A (Cu-free), reference compound]
[1]
  LD50 multiple dose (qd 1 → 9): 4.4 mg/kg/day
[2]; [17]
  ED (T/C 150%): 0.07 mg/kg/day
[3]
  LD50 single dose: 19 mg/kg/day
[7]; [18]
  Antitumor activity P388 (ED125): 0.26 mg/kg/day
[8]; [20]
  Antitumor activity Lewis lung (ED125): 0.13 mg/kg/day

## Cc1c(N)nc(C(CC(N)=O)NCC(N)C(N)=O)nc1C(=O)NC(C(=O)NC(C)C(O)CC(=O)NC(C(=O)NC(OC1OC(C)C(N)C(O)C1O)C(O)c1nc(-c2nc(C(=O)NCCCNC(C)c3ccccc3)cs2)cs1)C(C)O)C(OC1OC(CO)C(O)C(O)C1OC1OC(CO)C(O)C(OC(N)=O)C1O)c1c[nH]cn1 (centres unmarked) [Tallysomycin S14b]
[1]
  LD50 multiple dose (qd 1 → 9): 16 mg/kg/day
[2]; [17]
  Antitumor activity S180 (ED150): 0.08 mg/kg/day
[4]
  ILB activity (minimum inducible concentration): 0.04 µg/mL
[5]
  Antitumor activity B16 (ID50): 0.43 mg/kg/day
[6]
  Antibacterial potency: 1,090 μ/mg
[7]; [18]
  Antitumor activity P388 (ED125): 3.0 mg/kg/day
[8]; [20]
  Antitumor activity Lewis lung (ED125): 0.29 mg/kg/day
[9]
  minimum inhibitory concentration (MIC): 0.4
[10]
  minimum inhibitory concentration (MIC): > 100
[11]
  minimum inhibitory concentration (MIC): 25
[12]
  minimum inhibitory concentration (MIC): 3.1
[13]
  minimum inhibitory concentration (MIC): 3.1
[14]
  minimum inhibitory concentration (MIC): 0.4
[15]
  minimum inhibitory concentration (MIC): 0.2
[16]
  minimum inhibitory concentration (MIC): 25

## Cc1c(N)nc(C(CC(N)=O)NCC(N)C(N)=O)nc1C(=O)NC(C(=O)NC(C)C(O)CC(=O)NC(C(=O)NC(OC1OC(C)C(N)C(O)C1O)C(O)c1nc(-c2nc(C(=O)NCCCNCCCCN)cs2)cs1)C(C)O)C(OC1OC(CO)C(O)C(O)C1OC1OC(CO)C(O)C(OC(N)=O)C1O)c1c[nH]cn1 (centres unmarked) [Tallysomycin B (Cu-free), reference compound]
[1]
  LD50 multiple dose (qd 1 → 9): 6.8 mg/kg/day
[2]; [17]
  ED (T/C 150%): 0.06 mg/kg/day
[3]
  LD50 single dose: 46 mg/kg/day
[7]; [18]
  Antitumor activity P388 (ED125): 0.89 mg/kg/day
[8]; [20]
  Antitumor activity Lewis lung (ED125): 0.11 mg/kg/day

## Cc1c(N)nc(C(CC(N)=O)NCC(N)C(N)=O)nc1C(=O)NC(C(=O)NC(C)C(O)CC(=O)NC(C(=O)NC(OC1OC(C)C(N)C(O)C1O)C(O)c1nc(-c2nc(C(=O)NCCCCN)cs2)cs1)C(C)O)C(OC1OC(CO)C(O)C(O)C1OC1OC(CO)C(O)C(OC(N)=O)C1O)c1c[nH]cn1 (centres unmarked) [Tallysomycin S10b (Cu-free)]
[1]
  LD50 multiple dose (qd 1 → 9): 4.0 mg/kg/day
[2]
  ED (T/C 150%): 0.02 mg/kg/day
[3]
  LD50 single dose: 42 mg/kg/day
[7]; Mus musculus, P388, ip, 216 h, read-out: Antitumor activity P388 (ED125)
  ED (T/C 125%): 0.47 mg/kg/day
[8]; Mus musculus, Lewis lung carcinoma, ip, 264 h, read-out: Antitumor activity Lewis lung (ED125)
  ED (T/C 125%): 0.21 mg/kg/day
